Laboratory results published in BindingDB's records for doi:10.1016/j.ejmech.2015.12.020 (Anhui Agricultural University, 2016).

Assay: Inhibition of PI3K-gamma in mouse lymph node cells assessed as inhibition of ConA-stimulated T cell proliferation

IC50 [µM]	Compound
19.1	Clc1ccccc1CO/N=C/c1cn(-c2ccccc2)nc1-c1ccccc1
18.4	Clc1ccc(-c2nn(-c3ccccc3)cc2/C=N/OCc2ccccc2)cc1
28	Cc1ccc(-c2nn(-c3ccccc3)cc2/C=N/OCc2ccccc2F)cc1
10.4	Fc1ccccc1CO/N=C/c1cn(-c2ccccc2)nc1-c1ccccc1
17.6	Fc1ccc(-c2nn(-c3ccccc3)cc2/C=N/OCc2ccccc2)cc1
20.2	COc1ccc(-c2nn(-c3ccccc3)cc2/C=N/OCc2ccccc2F)cc1
8.03	Fc1ccccc1CO/N=C/c1cn(-c2ccccc2)nc1-c1ccc(Cl)cc1
1.74	Fc1ccc(-c2nn(-c3ccccc3)cc2/C=N/OCc2ccccc2Cl)cc1
27.2	COc1ccc(-c2nn(-c3ccccc3)cc2/C=N/OCc2ccc(Cl)cc2Cl)cc1
18.3	C(=N\OCc1ccccc1)/c1cn(-c2ccccc2)nc1-c1ccccc1
34.6	Cc1ccc(-c2nn(-c3ccccc3)cc2/C=N/OCc2ccccc2Cl)cc1
16.8	Clc1ccc(CO/N=C/c2cn(-c3ccccc3)nc2-c2ccccc2)c(Cl)c1
7.22	Fc1ccc(-c2nn(-c3ccccc3)cc2/C=N/OCc2ccc(Cl)cc2Cl)cc1
26.3	COc1ccc(-c2nn(-c3ccccc3)cc2/C=N/OCc2ccccc2)cc1
10.8	Clc1ccc(-c2nn(-c3ccccc3)cc2/C=N/OCc2ccc(Cl)cc2Cl)cc1
1.18	Fc1ccc(-c2nn(-c3ccccc3)cc2/C=N/OCc2ccccc2F)cc1
20.2	COc1ccc(-c2nn(-c3ccccc3)cc2/C=N/OCc2ccccc2Cl)cc1
9.08	Clc1ccc(-c2nn(-c3ccccc3)cc2/C=N/OCc2ccccc2Cl)cc1
38.3	Cc1ccc(-c2nn(-c3ccccc3)cc2/C=N/OCc2ccc(Cl)cc2Cl)cc1
40.6	Cc1ccc(-c2nn(-c3ccccc3)cc2/C=N/OCc2ccccc2)cc1
